Laboratory results taken from ChEMBL document CHEMBL1130863, “N3-methyl-mafosfamide as a chemically stable, alternative prodrug of mafosfamide” (1998).

Legend:
[1] = tested on: NIH3T3; assay: In vitro cytotoxicity was evaluated in mouse embryo BALB/c 3T3 cells; type: functional; conditions: read-out: LC50 (the source's name)
[2] = tested on: L1210; assay: Compound was evaluated against L1210 leukemia in mice expressed as increase of life span; Compound was active.; type: functional, Mus musculus

Compound | CC50 [1] [µM] | ILS [2] [%]
O=P1(N(CCCl)CCCl)NCCCO1 (stereo not drawn) [CYCLOPHOSPHAMIDE ANHYDROUS] | 37.6 | –
CN1C(SCCS(=O)(=O)O)CCOP1(=O)N(CCCl)CCCl (stereo not drawn) | 3.6 | >29
